Assay results taken from patent US11059795B2, “Androgen receptor modulators and methods for their use” (ESSA Pharma, Inc., priority 2018, dated 2021).

Columns and labels:
[1] = Microsomal stability assay, mouse liver microsomes; assay type: in vitro ADME; conditions: for microsomal CLint at 1 μM: mouse, liver microsomes, pH 7.4, mouse liver microsomes, 1 μM compound, 0.5 mg/mL protein, 37° C., read-out: MLM +30/− NADPH: Clint (μL/min/mg protein); for half-life at 1 μM: pH 7.4, mouse liver microsomes, read-out: Liver microsome T½ (min) Mouse
In short: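 Compound at 1 μM was incubated at 37° C with 0.5 mg/mL liver microsomes and 1 mM NADPH and/or 1 mM UDPGA (with alamethicin) in 100 mM potassium phosphate pH 7.4, 3 mM MgCl2. Samples were taken at 0, 15, 30 and 60 min and measured by LC/MS/MS. t½ came from compound loss relative to 0 min, and Clint was scaled with 45 mg microsomal protein/g liver.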

[2] = Microsomal stability assay, dog liver microsomes; assay type: in vitro ADME; conditions: pH 7.4, read-out: Liver microsome T½ (min) Dog
Experimental: (§1) Microsomal stability assay is a widely used in vitro model to characterize the metabolic conversion by phase I enzymes, such as cytochrome P450 (CYP) enzymes. Since metabolism is known to be highly variable in different species, microsomal stability assay is commonly run in multiple species. Metabolic stability of testing compound can be evaluated using human, rat, mouse, or other animal liver or intestine microsomes to predict intrinsic clearance.
(§2) The assay was carried out in 96-well microtiter plates at 37° C. Reaction mixtures (25 μL) contained a final concentration of 1 μM test compound, 0.5 mg/mL liver microsomes protein, and 1 mM NADPH and/or 1 mM UDPGA (with alamethicin) in 100 mM potassium phosphate, pH 7.4 buffer with 3 mM MgCl2. The incubation was done with N=1, but duplicate incubation at each time point can be prepared if necessary. At each of the time points (for example, 0, 15, 30, and 60 minutes), 150 μL of quench solution (100% acetonitrile with 0.1% formic acid) with internal standard was transferred to each well. Besides the zero minute controls, mixtures containing the same components except the NADPH can also be prepared as the negative control. Verapamil was included as a positive control to verify assay performance. Plates were sealed, vortexed, and centrifuged at 4° C. for 15 minutes at 4000 rpm. The supernatant is transferred to fresh plates for LC/MS/MS analysis.
(§3) Summarized conditions: [Compound]=[…], [LM]=0.5 mg/mL, [NADPH]=1 mM and/or [UDPGA]=1 mM, Buffer=100 mM Potassium Phosphate, pH 7.4 with 3 mM MgCl2, Time=0, 15, 30, and 60 min, and Temperature=37° C.
(§4) All samples were analyzed on LC/MS/MS using an AB Sciex API 4000 instrument, coupled to a Shimadzu LC-20AD LC Pump system. Analytical samples were separated using a Waters Atlantis T3 dC18 reverse phase HPLC column (20 mm×2.1 mm) at a flow rate of 0.5 mL/min. The mobile phase consisted of 0.1% formic acid in water (solvent A) and 0.1% formic acid in 100% acetonitrile (solvent B).
(§5) The extent of metabolism is calculated as the disappearance of the test compound, compared to the 0-min time incubation. Initial rates are calculated for the compound concentration and used to determine half-life (t½) values and subsequently, the intrinsic clearance (Clint). Clint=(0.693)(1/t½ (min))(g of liver/kg of body weight)(mL incubation/mg of microsomal protein)(45 mg of microsomal protein/g of liver weight)

[3] = biological target: LBD of estrogen receptor-β (ERβ) fused to DBD of GAL4 (Homo sapiens, UniProt Q92731); assay: LBD-expressing reporter assay (GeneBLAzer), ERβ LBD; assay type: cell-based; conditions: inhibition of maximal activity attained with agonist; read-out: Steroid Receptor LBD IC50 (μM) ERβ
From the text: To assess if the representative compounds (Compounds A13, A28, A38, A74, A93, and A109) compete with ligand (agonist) for the ligand-binding domain (LBD) of steroid hormone receptors (which would be off-target), the GeneBLAzer assay was employed (Thermo Fisher). This assay uses cells that stably express a chimera fusion protein comprising the LBD of a steroid hormone receptor fused to the DNA-binding domain (DBD) of GAL4 along with beta-lactamase reporter under transcriptional control of an upstream activator sequence (UAS). When agonist binds to the LBD of the GAL4 (DBD)-steroid hormone (LBD) chimera fusion protein, the protein binds to the UAS, resulting in expression of beta-lactamase. LBDs of androgen receptor (AR), progesterone receptor-beta (PRβ), glucocorticoid receptor (GR), estrogen receptor-α (ERα), and estrogen receptor-β (ERβ) were tested and IC50s calculated for inhibiting maximal activity attained with agonist.

[4] = Hepatocyte stability assay, rat hepatocytes; assay type: in vitro ADME; conditions: cryopreserved hepatocytes, read-out: Hepatocytes T½ (min) Rat
From the text: The […] of in vitro intrinsic clearance (Clint) for drug candidates in the early discovery stage is common practice in the pharmaceutical industry. The Clint values of drug candidates can help to confirm whether metabolism is the main clearance pathway when it is compared with the total body clearance in vivo. Hepatocytes are among the routinely used in vitro systems for measuring clearance. Hepatocytes have been reported to retain most of the phase I and phase II metabolic activities, and therefore, it is a useful tool to estimate the intrinsic clearance for potential drug candidates.
Metabolic stability of testing compound were be evaluated using human and mouse hepatocytes and can also be use rat, mouse, or other animal hepatocytes to predict intrinsic clearance. Cryopreserved hepatocytes were removed from the liquid nitrogen tank and thawed in a 37° C. water bath. As soon as the cells pulled away from the vial wall, they were decanted into 48 ml of warm HT medium. Cells were centrifuged for four minutes at 420 rpm (50 g). After removing the supernatant, pellet was re-suspended in warm DMEM medium. Cell density was counted by a hemacytometer.
The assay was carried out in 96-well microtiter plates. Compounds were incubated for 0, 60, 120, and 180 minutes at 37° C. with hepatocytes. Reaction mixtures (50 μL) contained a final concentration of 1 μM test compound, 0.5 million cells/mL hepatocytes in the DMEM medium. At each of the time points (for example, 0, 1, 2, and 3 hours), 200 μL of quench solution (100% acetonitrile with 0.1% formic acid) with internal standard was transferred to each well. Midazolam was included as a positive control to verify assay performance. Plates were sealed and centrifuged at 4° C. for 15 minutes at 4000 rpm. The supernatant is transferred to fresh plates for LC/MS/MS analysis.
Summarized conditions (customizable): [Compound]=[…], Positive control: midazolam and/or naloxone, [Hepatocyte]=0.5 million cells/Ml, time=0, 60, 120, and 180 min, t=37° C.
as §4
The extent of metabolism was calculated as the disappearance of the test compound, compared to the 0-min control reaction incubations. Initial rates were calculated for the compound concentration and used to determine t½ values and subsequently, the intrinsic clearance, Clint. Clint=(0.693)(1/t½(min))(mL incubation/million cells)

[5] = Microsomal stability assay, rat liver microsomes; assay type: in vitro ADME; conditions: pH 7.4, read-out: Liver microsome T½ (min) Rat
Experimental: as §1, §2, §3, §4, §5

LBD of estrogen receptor-β (ERβ) fused to DBD of GAL4, sequence (Q92731 264-498 limits assumed): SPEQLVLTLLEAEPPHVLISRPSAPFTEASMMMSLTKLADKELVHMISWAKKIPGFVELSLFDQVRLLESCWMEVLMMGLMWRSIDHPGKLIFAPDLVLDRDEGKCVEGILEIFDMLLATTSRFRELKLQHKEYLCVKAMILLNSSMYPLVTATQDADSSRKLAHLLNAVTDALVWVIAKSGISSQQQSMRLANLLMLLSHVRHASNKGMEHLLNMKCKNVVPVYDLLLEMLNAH

microsomal CLint at 1 μM [1] [µL/min/mg]	half-life at 1 μM [2] [min]	IC50 [3] [µM]	half-life at 1 μM [4] [min]	half-life at 1 μM [1] [min]	half-life at 1 μM [5] [min]	Structure (SMILES)
< 12						C[C@H](Oc1ccc(C(C)(C)c2cc(Cl)c(OCCCl)c(C#N)c2)cc1)c1ccnc(NS(C)(=O)=O)n1 (single isomer, unassigned) [Compound A170]
< 12	> 120	> 10	> 360	> 120	> 120	CC(C)(c1ccc(OCc2ccnc(NS(C)(=O)=O)n2)cc1)c1cc(Cl)c(OCCCl)c(C#N)c1 [Compound A109, N-(4-((4-(2-(3-chloro-4-(2-chloroethoxy)-5-cyanophenyl)propan-2-yl)phenoxy)methyl)pyrimidin-2-yl)methanesulfonamide]
12 to 48						Cc1cnc(NS(C)(=O)=O)nc1COc1ccc(C(C)(C)c2cc(Cl)c(OCCCl)c(C#N)c2)cc1 [Compound A122, N-(4-((4-(2-(3-Chloro-4-(2-chloroethoxy)-5-cyanophenyl)propan-2-yl)phenoxy)methyl)-5-methylpyrimidin-2-yl)methanesulfonamide]
< 12						CCS(=O)(=O)Nc1nc(COc2ccc(C(C)(C)c3cc(Cl)c(OCCCl)c(C#N)c3)cc2)co1 [Compound A126]
< 12						CCS(=O)(=O)Nc1nccc(COc2ccc(C(C)(C)c3cc(Cl)c(OCCCl)c(C#N)c3)cc2)n1 [Compound A131]
12 to 48						CC(C)(c1ccc(OCc2nc(S(C)(=O)=O)cs2)cc1)c1cc(Cl)c(OCCCl)c(C#N)c1 [Compound A136, 3-Chloro-2-(2-chloroethoxy)-5-(2-(4-((4-(methylsulfonyl)thiazol-2-yl)methoxy)phenyl)propan-2-yl)benzonitrile]
		7.37				CC(C)(c1ccc(OC[C@H](O)CNS(C)(=O)=O)cc1)c1cc(Cl)c(OC[C@H](O)CCl)c(Cl)c1 [X, reference compound]

Continued, compound first:

Structure (SMILES)	microsomal CLint at 1 μM [1] [µL/min/mg]	half-life at 1 μM [2] [min]	IC50 [3] [µM]	half-life at 1 μM [4] [min]	half-life at 1 μM [1] [min]	half-life at 1 μM [5] [min]
CC(C)(c1ccc(OCc2ocnc2S(C)(=O)=O)cc1)c1cc(Cl)c(OCCCl)c(Cl)c1 [Compound A13, 5-((4-(2-(3,5-dichloro-4-(2-chloroethoxy)phenyl)propan-2-yl)phenoxy)methyl)-4-(methylsulfonyl)oxazole]	< 12	> 120	> 10	75	> 120	64
CC(C)(c1ccc(OCc2ocnc2S(C)(=O)=O)cc1)c1cc(Cl)c(OCCCl)c(C#N)c1 [Compound A28, 3-chloro-2-(2-chloroethoxy)-5-(2-(4-((4-(methylsulfonyl)oxazol-5-yl)methoxy)phenyl)propan-2-yl)benzonitrile]	12 to 48	> 120	> 10	31	74	23
CC(C)(c1ccc(OCc2coc(NS(C)(=O)=O)n2)cc1)c1cc(Cl)c(OCCCl)c(Cl)c1 [Compound A38, N-(4-((4-(2-(3,5-dichloro-4-(2-chloroethoxy)phenyl)propan-2-yl)phenoxy)methyl)oxazol-2-yl)methanesulfonamide]	< 12	> 120	> 10	56	> 120	12
CC(C)(c1ccc(OCc2ccnc(NS(C)(=O)=O)n2)cc1)c1cc(Cl)c(OCCCl)c(Cl)c1 [Compound A74, N-(4-((4-(2-(3,5-dichloro-4-(2-chloroethoxy)phenyl)propan-2-yl)phenoxy)methyl)pyrimidin-2-yl)methanesulfonamide]	< 12	> 120	> 10	> 360	> 120	> 120
CC(C)(c1ccc(OCc2ncc(S(C)(=O)=O)s2)cc1)c1cc(Cl)c(OCCCl)c(C#N)c1 [Compound A93, 3-chloro-2-(2-chloroethoxy)-5-(2-(4-((5-(methylsulfonyl)thiazol-2-yl)methoxy)phenyl)propan-2-yl)benzonitrile]	< 12	> 120	> 10	94	> 120	83
